Reference: ChEMBL document CHEMBL1201862, “PubChem BioAssay data set” (2004)
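Dose response: 5 concentrations. Exposure: 48 h. Format: 96-well plates. Endpoint: linear interpolation; highest concentration if not reached. GI50 marks 50% less growth.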 Calls of active or inactive are those of the source. No stated cut-off is given here; in the data, active = GI50 up to about 1.1 µM and inactive = higher.

What was measured:
Experiment in all cases: NCI-60 cell line screen, 48 h
TK-10 = tested on: TK-10
786-0 = tested on: 786-0
SF-539 = tested on: SF-539
PC-3 = tested on: PC-3
NCI/ADR-RES = tested on: NCI/ADR-RES
HL-60 = tested on: HL-60
LOX IMVI = tested on: LOX IMVI
SN12C = tested on: SN12C
U-251 = tested on: U-251
COLO 205 = tested on: COLO 205
SNB-75 = tested on: SNB-75
DU-145 = tested on: DU-145
MDA-MB-435 = tested on: MDA-MB-435
HCT-15 = tested on: HCT-15
SK-OV-3 = tested on: SK-OV-3
SR = tested on: SR
UACC-257 = tested on: UACC-257
Malme-3M = tested on: Malme-3M
OVCAR-4 = tested on: OVCAR-4
HCC 2998 = tested on: HCC 2998

SMILES: CC(C)CNC(=O)Cn1c(-c2ccccc2)cc2ccccc21
- GI50 (TK-10): > 100 µM (inactive)
- GI50 (786-0): > 100 µM (inactive)
- GI50 (SF-539): > 100 µM (inactive)
- GI50 (PC-3): > 100 µM (inactive)
- GI50 (NCI/ADR-RES): > 100 µM (inactive)
- GI50 (HL-60): > 100 µM (inactive)
- GI50 (LOX IMVI): > 100 µM (inactive)
- GI50 (SN12C): > 100 µM (inactive)
- GI50 (U-251): > 100 µM (inactive)
- GI50 (COLO 205): > 100 µM (inactive)
- GI50 (SNB-75): > 100 µM (inactive)
- GI50 (DU-145): > 100 µM (inactive)
- GI50 (MDA-MB-435): > 100 µM (inactive)
- GI50 (HCT-15): > 100 µM
- GI50 (SK-OV-3): > 100 µM (inactive)
- GI50 (SR): > 100 µM (inactive)
- GI50 (UACC-257): > 100 µM (inactive)
- GI50 (Malme-3M): > 100 µM (inactive)
- GI50 (OVCAR-4): > 100 µM (inactive)
- GI50 (HCC 2998): > 100 µM (inactive)
